Source: US5589513A, “Pharmaceutical composition and process for the preparation thereof” (Chinoin Gyogyszer es Vegyeszeti Termekek Gyara Rt., priority 1991, dated 1996)
Counter-ions that a name gives are not always drawn. Like-named read-outs stand apart in the source and are kept apart here.

What was measured:
[1] = test system: MPP^+ uptake to the striatatal synaptosones; test: MPP+ uptake to striatal synaptosomes; assay type: biochemical; details: for IC50: striatal synaptosomes; for uptake inhibitory potency: potential metabolites
Protocol: (§1) 3.) The potential metabolites of deprenyl and p-fluoro-deprenyl, (methylamphetamine, amphetamine and p-fluoro-methylamphetamine, p-fluoro-amphetamine, respectively) have a significant uptake inhibitory potency; they can prevent in vivo the MPTP neurotoxicity without the development of a high degree of MAO inhibition. The tests were carried out according to the method of Heikilla [Nature, 311, 467-469 (1984)].

[2] = test system: NA uptake, rat brain synaptosomas, HYPOTHALAMUS; test: In vitro NA uptake inhibition on brain synaptosomes (hypothalamus); assay type: biochemical
[3] = test system: DA uptake, rat brain synaptosomas, STRIATUM; test: In vitro DA uptake inhibition on brain synaptosomes (striatum); assay type: biochemical
DSP-4 neurotoxicity [4] = test: Interaction of deprenyl and p-fluoro-deprenyl metabolites with DSP-4 neurotoxicity; assay type: in vivo, rats; details: for prevention of DSP-4 induced neurotoxicity in vivo: dose of 1-5 mg/kg i.p., without development of MAO inhibition
Protocol: The tests were carried out according to the method of Finnegan [Finnegan et al., Eur. J. Pharmacol., 184, 119-126, (1990)].

[5] = test system: MPTP induced neuronal damage; details: literature; cited from earlier work
MAO-A [6] = test: Inhibition of MAO activity in brain nucleus free homogenates, 14C-5-HT substrate; assay type: in vivo, domestic pig; details: pig; p. os 96 h; UG-111 48 h (patch 24 h); UG-167 72 h (patch 48 h); UG-191 96 h (patch 72 h)
Protocol: (§2) MAO activity was measured radiometrically according to the methods of Wurtman and Axelrod [Biochem. Pharmacol. 12. 1414-19; (1963)] with a slight modification [K. Magyar in: Monoamine Oxidases and their Selective Inhibition, Ed.: K. Magyar, Pergamon Press, Akademiai Kiado, Budapest, 11-21; (1980)].

DSP-4 neurotoxicity [7] = test: Inhibition of DSP-4 neurotoxicity after oral deprenyl formulations (hippocampus noradrenaline, survival); assay type: in vivo; details: 3 mg/kg p.o.; 50 mg/kg DSP-4 ip.; rats
Protocol: The inhibition of DSP-4 neurotoxicity was measured in rats. For treating rats the schedule of Finnegan was followed [Finnegan et al., Eur. J. Pharmacol., 184, 119-126, (1990)].
Wistar male rats, weighing 170-200 g were used. Animals were housed six to a cage under constant temperature (22° C.), in a room illuminated 12 h per day. Food and water were freely available. Rats were pretreated orally with 3 mg/kg of the combination of example 3 (1 mg/kg "fast" (F)+2 mg/kg "slow" (S)), 1, 2, 4 and 8 hours before DSP-4 treatment (50 mg/kg; intraperitoneally).
Each hippocampus of the rats […].

MAO-A [8] = test: Inhibition of MAO activity in liver, 14C-5-HT substrate; assay type: in vivo, domestic pig; details: pig; times as for brain; where three numbers are printed, apparently single animals
Protocol: as §2

DSP-4 induced toxicity = details: literature; cited from earlier work
MPTP neurotoxicity = MPTP neurotoxicity (dopamine, DOPAC, HVA levels); assay type: in vivo; design: DOPAC: unit not given beside the values; details: for prevention of MPTP neurotoxicity in vivo: without a high degree of MAO inhibition
Protocol: as §1

[9] = Distribution of labelled deprenyl and p-fluoro-deprenyl in brain regions and plasma after oral administration; assay type: in vivo; details: rats, deprenyl […], p-fluoro-deprenyl 10 mg/kg
Text: The simultaneous presence and the equal quantities of the two labels indicate the unchanged molecule (the data relate to the molar concentrations calculated on the basis of the two labels).

[10] = pretreatment 10 mg/kg i.p., DSP-4 50
[11] = read-out: In vitro uptake inhibition DA STRIATUM
[12] = pretreatment 1 mg/kg i.p., DSP-4 50
[13] = pretreatment 5 mg/kg i.p., DSP-4 30
[14] = 1. treatment MPTP, 2. treatment the substance (MPTP: phys.s.)
[15] = 1. treatment MPTP, 2. treatment the substance (MPTP: phys.s.), % of physiological salt control
[16] = 1. treatment MPTP, 2. treatment the substance (MPTP: phys.s.), time between treatments 30
[17] = 1. treatment the substance, 2. treatment MPTP
[18] = 1. treatment the substance, 2. treatment MPTP, % of physiological salt control

CC(N)Cc1ccc(F)cc1 (single isomer, unassigned; (+)) [(+)-p-F-amphetamine]
IC50 [1]: 0.1 µM

CNC(C)Cc1ccc(F)cc1 (single isomer, unassigned; (+)) [(+)-p-F-metamphetamine]
IC50 [1]: 1.3 µM
IC50 ([2]; listed as (+)-p-FLUORO-MA): 7.7 µM
IC50 ([3]; read-out: In vitro uptake inhibition DA STRIATUM, listed as (+)-p-FLUORO-MA): 23 µM

CC(N)Cc1ccc(F)cc1 (single isomer, unassigned; (-)) [(-)-p-F-amphetamine]
IC50 [1]: 0.72 µM

CNC(C)Cc1ccc(F)cc1 (single isomer, unassigned; (-)) [(-)-p-F-metamphetamine]
IC50 [1]: 1.3 µM
IC50 ([2]; listed as (-)-p-FLUORO-MA): 7.5 µM
Survival % (DSP-4 neurotoxicity [4]; [10]): 0%
IC50 ([3]; read-out: In vitro uptake inhibition DA STRIATUM, listed as (-)-p-FLUORO-MA): 300 µM

C#CCN(C)C(C)Cc1ccc(F)cc1 (single isomer, unassigned; (-)) [(-)-p-FLUORO-D]
IC50 [2]: 13 µM
IC50 [3, 11]: 29 µM

C#CCN(C)[C@@H](C)Cc1ccc(F)cc1 [(+)-p-FLUORO-D]
IC50 [2]: 6.1 µM
IC50 [3, 11]: 16 µM

C#CCN(C)[C@H](C)Cc1ccccc1 [(-)-deprenyl, (-)N-(-1-phenyl-isopropyl)-N-methyl-propinylamine-hydrochloride]
effect on MPTP induced neuronal damage [5]: can be prevented
inhibition of MAO activity (%) brain 14C-5-HT (MAO-A [6]): 20.14 ± 6.0%
prevention of the neurotoxicity of DSP-4 (DSP-4 neurotoxicity [7]): can prevent
inhibition of MAO activity (%) liver 14C-5-HT (MAO-A [8]): 10.45 ± 6.4%

CN[C@H](C)Cc1ccccc1 [(-)-metamphetamine]
Na content of hippocampus in % ± S.D. (DSP-4 neurotoxicity [4]; [12]): 61 ± 3.5%
Survival % (DSP-4 neurotoxicity [4]; [12]): 100%
Na content of hippocampus in % ± S.D. (DSP-4 neurotoxicity [4]; [13]): 116 ± 2.1%
Survival % (DSP-4 neurotoxicity [4]; [13]): 63%
Survival % (DSP-4 neurotoxicity [4]; [10]): 0%

NC/C(=C/F)CCc1ccc(F)cc1 [MDL 72974A, (E)-4-fluoro-beta-fluoro-ethylene benzene butamine]
effect on DSP-4 induced toxicity / NA depletion (DSP-4 induced toxicity): fails to prevent DSP-4 induced toxicity

CN1CC=C(c2ccccc2)CC1 [MPTP, 1-methyl-4-phenyl-1,2,3,6-tetrahydropyridine]
DOPAC (MPTP neurotoxicity; [14]): 0.7 ± 0.04
HVA (homovanillic acid) (MPTP neurotoxicity; [14]): 1.3 ± 0.07
DOPAC % (MPTP neurotoxicity; [15]): 77%
Dopamine % (MPTP neurotoxicity; [15]): 53%
HVA (homovanillic acid) (MPTP neurotoxicity; [15]): 79%
Dopamine (MPTP neurotoxicity; [16]): 8.0 ± 0.5

OC1(c2ccc(Cl)cc2)c2ccccc2C2=NCCN21 (stereo not drawn) [Mazindol]
effect on MPTP induced neuronal damage [5]: can be retarded
DOPAC (MPTP neurotoxicity; [14]): 1.1 ± 0.08
DOPAC % (MPTP neurotoxicity; [15]): 122%
Dopamine % (MPTP neurotoxicity; [15]): 98%
Dopamine (MPTP neurotoxicity; [16]): 14.0 ± 0.8

C#CCN(C)Cc1ccccc1 [Pargyline]
DOPAC (MPTP neurotoxicity; [14]): 0.5 ± 0.04
HVA (homovanillic acid) (MPTP neurotoxicity; [14]): 0.9 ± 0.09
DOPAC % (MPTP neurotoxicity; [15]): 55%
Dopamine % (MPTP neurotoxicity; [15]): 47%
HVA (homovanillic acid) (MPTP neurotoxicity; [15]): 64%
Dopamine (MPTP neurotoxicity; [16]): 7.1 ± 0.6
DOPAC (MPTP neurotoxicity; [17]): 1.0 ± 0.06
HVA (homovanillic acid) (MPTP neurotoxicity; [17]): 1.4 ± 0.06
Dopamine (MPTP neurotoxicity; 1. treatment the substance, 2. treatment MPTP (pretreatment)): 13.8 ± 0.5
DOPAC % (MPTP neurotoxicity; [18]): 111%
Dopamine % (MPTP neurotoxicity; [18]): 91%
HVA (homovanillic acid) (MPTP neurotoxicity; [18]): 100%

CC(N)Cc1ccccc1 (stereo not drawn) [amphetamine]
uptake inhibitory potency [1]: significant
prevention of DSP-4 induced neurotoxicity in vivo (DSP-4 neurotoxicity [4]): able to prevent
prevention of MPTP neurotoxicity in vivo (MPTP neurotoxicity): can prevent

CNCCCN1c2ccccc2CCc2ccccc21 [desipramine, 10,11-Dihydro-N-methyl-5-H-dibenz(6,7)azepine-5-propanamine]
effect on DSP-4 induced toxicity / NA depletion (DSP-4 induced toxicity): inhibit the NA-depleting effect of DSP-4

CC(N)Cc1ccc(F)cc1 (stereo not drawn) [p-fluoro-amphetamine]
uptake inhibitory potency [1]: significant
prevention of DSP-4 induced neurotoxicity in vivo (DSP-4 neurotoxicity [4]): able to prevent
prevention of MPTP neurotoxicity in vivo (MPTP neurotoxicity): can prevent

C#CCN(C)C(C)Cc1ccc(F)cc1 (stereo not drawn) [p-fluoro-deprenyl]
time in which the unchanged compound was absorbed [9]: 15 min
